Data on eight molecules can be found in patent US11179376B2, “Salts of pyrazolo[1,5-a]pyridine derivative and use thereof” (SUNSHINE LAKE PHARMA CO., LTD., priority 2017, dated 2021).

Structures can show the parent of a compound that is named as a salt. Where two headings read alike, the source gives them in different places.

The series can be described thus: Pharmacokinetics test in beagle dogs (capsule by gavage, plasma LC/MS/MS). Format: in vivo. On the procedure:
The LC/MS/MS system used in the analysis consists of an Agilent 1200 Series vacuum degasser, binary pump, well-plate autosampler, thermostated column compartment, the Agilent G6430 Triple Quadrupole Mass Spectrometer with an electrosprayionization (ESI) source. Quantitative analysis was carried out using MRM mode. The parameters for MRM transitions are in the Table A.
An Agilent XDB-C18, 2.1×30 mm, 3.5 μM column was used for the analysis. 5 μL of the samples were injected. Analysis condition: The mobile phase was 0.1% formic acid in water (A) and 0.1% formic acid in methanol (B). The flow rate was 0.4 mL/min. And the gradient of Mobile phase was in the Table B.
An ESI source was used on the LC/MS/MS spectrometer. The analysis was done in positive ion mode as appropriate and the MRM transition for each analyte was optimized using standard solution. A Capcell MP-C18 100×4.6 mm I.D., […] column (Phenomenex, Torrance, Calif., USA) was used during the analysis. The mobile phase was 5 mM ammonia acetate, 0.1% MeOH in water (A): 5 mM ammonia acetate, 0.1% MeOH in acetonitrile (B) (70/30, v/v). The flow rate was 0.6 mL/min. Column was maintained at ambient temperature. 20 μL of the samples were injected.
The blood samples (0.3 mL) were drawn at 0.25, 0.5, 1.0, 2.0, 3.0, 4.0, 6.0, 8.0, 12 and 24 hour time points or 0.083, 0.25, 0.5, 1.0, 2.0, 4.0, 6.0, 8.0 and 24 hour time points and centrifuged at 3,000 or 4000 rpm for 2 to 10 min. The plasma solutions were collected, and analyzed by LC/MS/MS as described above. The pharmacokinetic parameters were calculated according to non-compartment model using WinNonlin procedure.

Where [1] appears, read: capsule by gavage, dose 2.5 mg/kg, plasma.

As a reminder, the Cmax is the highest concentration seen after dosing. What is called Tmax is the time at which the peak concentration occurs. In general, AUC(0-t) refers to exposure summed from dosing to a finite time, without extrapolation to infinity.

As for `COc1ncc(-c2ccn3ncc(C#N)c3c2)cc1NS(=O)(=O)c1ccc(F)cc1F` [N-(5-(3-cyanopyrazolo[1,5-α]pyridin-5-yl)-2-methoxypyridin-3-yl)-2,4-difluorobenzenesulfonamide], the “exposure and bioavailability in vivo” value (Cmax and AUClast much larger than those of compound of formula (I)) was “good exposure and bioavailability”. Moreover, under setting [1], the AUClast amounted to 8420 ng·h/mL, the Cmax was 3050 ng/mL and the Tmax is given as 0.667 h.

Under “dog, po, capsule by gavage, dose 2.5 mg/kg, plasma”, `COc1ncc(-c2ccn3ncc(C#N)c3c2)cc1NS(=O)(=O)c1ccc(F)cc1F` [Compound of formula (I), N-(5-(3-cyanopyrazolo[1,5-α]pyridin-5-yl)-2-methoxypyridin-3-yl)-2,4-difluorobenzenesulfonamide] registered an AUC(0-t) of 1550 ng·h/mL. Also, the Cmax (dog, po, capsule by gavage, dose 2.5 mg/kg, plasma, read-out: Cmax) was found to be 482 ng/mL. Further, the Tmax (dog, po, capsule by gavage, dose 2.5 mg/kg, plasma, read-out: Tmax) worked out at 1.67 h.

Take `COc1ncc(-c2ccn3ncc(C#N)c3c2)cc1NS(=O)(=O)c1ccc(F)cc1F` [crystalline form A of mono-lithium salt, N-(5-(3-cyanopyrazolo[1,5-α]pyridin-5-yl)-2-methoxypyridin-3-yl)-2,4-difluorobenzenesulfonamide]: under setting [1], the AUClast was found to be 4290 ng·h/mL, the Cmax is on record as 1640 ng/mL and the Tmax worked out at 1.5 h.

`COc1ncc(-c2ccn3ncc(C#N)c3c2)cc1NS(=O)(=O)c1ccc(F)cc1F` [crystalline form A of mono-choline salt, N-(5-(3-cyanopyrazolo[1,5-α]pyridin-5-yl)-2-methoxypyridin-3-yl)-2,4-difluorobenzenesulfonamide]: under setting [1], the AUClast came to 9130 ng·h/mL, the Cmax was 3220 ng/mL and the Tmax came out at 1.08 h.

For the molecule `COc1ncc(-c2ccn3ncc(C#N)c3c2)cc1NS(=O)(=O)c1ccc(F)cc1F` [crystalline form A of mono-sodium salt, N-(5-(3-cyanopyrazolo[1,5-α]pyridin-5-yl)-2-methoxypyridin-3-yl)-2,4-difluorobenzenesulfonamide], under setting [1], the AUClast was 8730 ng·h/mL, the Cmax is listed as 2820 ng/mL and the time of peak concentration (Tmax) is 2.5 h.

Regarding `COc1ncc(-c2ccn3ncc(C#N)c3c2)cc1NS(=O)(=O)c1ccc(F)cc1F` [amorphous form of mono-sodium salt, N-(5-(3-cyanopyrazolo[1,5-α]pyridin-5-yl)-2-methoxypyridin-3-yl)-2,4-difluorobenzenesulfonamide], under setting [1], the AUClast amounted to 7290 ng·h/mL, the Cmax turned out to be 2180 ng/mL and the Tmax was 1.33 h.

Consider `COc1ncc(-c2ccn3ncc(C#N)c3c2)cc1NS(=O)(=O)c1ccc(F)cc1F` [crystalline form C of mono-sodium salt, N-(5-(3-cyanopyrazolo[1,5-α]pyridin-5-yl)-2-methoxypyridin-3-yl)-2,4-difluorobenzenesulfonamide], for which, under setting [1], the AUClast worked out at 5700 ng·h/mL, the Cmax worked out at 1410 ng/mL and the Tmax is reported as 2.33 h.

For `COc1ncc(-c2ccn3ncc(C#N)c3c2)cc1NS(=O)(=O)c1ccc(F)cc1F` [crystalline form B of mono-sodium salt, N-(5-(3-cyanopyrazolo[1,5-α]pyridin-5-yl)-2-methoxypyridin-3-yl)-2,4-difluorobenzenesulfonamide], under setting [1], the AUClast came out at 9370 ng·h/mL, the Cmax came to 4530 ng/mL and the Tmax came out at 0.583 h.
